Results from US10597388B2, “Pyridazinone herbicides” (FMC CORPORATION, priority 2014, dated 2020).
Like-named read-outs stand apart in the source and are kept apart here.

Assays:
Type in all cases: in vivo
[1] = test system: momingglory (Ipomoea spp.); assay: Test A greenhouse herbicide test, pre- and postemergence; conditions: 1000 g ai/ha, 0 to 100 scale; for pest or weed control at 1000 g/ha: Ipomoea, 240 h
In short: (§1)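 Seeds sown in loam–sand blend got a preemergence directed soil spray of compound in non-phytotoxic solvent with surfactant. Postemergence treatment was given at 2–10 cm, one- to two-leaf stage. After ~10 d in greenhouse, injury was rated visually vs untreated controls, 0 (no effect) to 100 (complete control).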

[2] = test system: barnyardgrass (Echinochloa crus-galli); assay: as above; conditions: 1000 g ai/ha, 0 to 100 scale; for pest or weed control at 1000 g/ha: Echinochloa crus-galli, 240 h
In short: as §1

[3] = test system: wheat (Triticum aestivum); assay: as above; conditions: 1000 g ai/ha, 0 to 100 scale; for plant injury at 1000 g/ha: Triticum aestivum, 240 h
In short: as §1

[4] = test system: crabgrass, large (large crabgrass, Digitaria sanguinalis); assay: as above; conditions: 1000 g ai/ha, 0 to 100 scale
In short: as §1

[5] = test system: foxtail, giant (giant foxtail, Setaria faberii); assay: as above; conditions: 1000 g ai/ha, 0 to 100 scale; for pest or weed control at 1000 g/ha: Setaria faberi, 240 h
In short: as §1

corn (Zea mays) = assay: as above; conditions: 1000 g ai/ha, 0 to 100 scale
In short: as §1

[6] = test system: velvetleaf (Abutilon theophrasti); assay: as above; conditions: Preemergence, 1000 g ai/ha, 0 to 100 scale, 0 no effect, 100 complete control
In short: as §1

[7] = test system: pigweed (Amaranthus retroflexus); assay: as above; conditions: 1000 g ai/ha, 0 to 100 scale; for Plant response rating, Pigweed: Preemergence, 0 no effect, 100 complete control
In short: as §1

[8] = test system: sedge, umbrella (small-flower umbrella sedge, Cyperus difformis); assay: Test B flooded paddy test; conditions: 250 g ai/ha, Flood; visual rating on scale of 0 to 100 where 0 is no effect and 100 is complete control; 13 to 15 d after treatment
In short: (§2)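 Plants at the 2-leaf stage were flooded to 3 cm above soil, and test compounds were applied directly into the paddy water, which was held at that depth throughout. After 13 to 15 d in a greenhouse, injury was rated visually against untreated controls on a 0–100 scale (0 no effect, 100 complete control).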

[9] = test system: barnyardgrass (Echinochloa crus-galli); assay: Test B flooded paddy test; conditions: 250 g ai/ha, Flood; visual rating on scale of 0 to 100 where 0 is no effect and 100 is complete control; 13 to 15 d after treatment
In short: as §2

rice (Oryza sativa) = assay: Test B flooded paddy test; conditions: 250 g ai/ha, Flood; visual rating on scale of 0 to 100 where 0 is no effect and 100 is complete control; 13 to 15 d after treatment
In short: as §2

[10] = test system: ducksalad (Heteranthera limosa); assay: Test B flooded paddy test; conditions: 250 g ai/ha, Flood; visual rating on scale of 0 to 100 where 0 is no effect and 100 is complete control; 13 to 15 d after treatment
In short: as §2

[11] = test system: blackgrass (Alopecurus myosuroides); assay: Test A greenhouse herbicide test, postemergence; conditions: 1000 g ai/ha, 0 to 100 scale, 0 is no effect, 100 is complete control
In short: (§3)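 Greenhouse postemergence test: formulated chemicals sprayed on one- to two-leaf plants (2 to 10 cm), grown in loam soil blended with sand. Injury assessed visually about 10 d later against untreated controls, scored 0 (no effect) to 100 (complete control).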

[12] = test system: galium (catchweed bedstraw, Galium aparine); assay: Test A greenhouse herbicide test, postemergence; conditions: 1000 g ai/ha, 0 to 100 scale, 0 is no effect, 100 is complete control
In short: as §3

kochia (Kochia scoparia) = assay: Test A greenhouse herbicide test, pre- and postemergence; conditions: 1000 g ai/ha, 0 to 100 scale; for Kochia plant response rating: Postemergence, 0 is no effect, 100 is complete control; for Plant response rating, Kochia: Preemergence, 0 no effect, 100 complete control
In short: as §1

[13] = test system: ragweed (common ragweed, Ambrosia elatior); assay: as above; conditions: 1000 g ai/ha, 0 to 100 scale; for Ragweed plant response rating: Postemergence, 0 is no effect, 100 is complete control; for Plant response rating, Ragweed: Preemergence, 0 no effect, 100 complete control
In short: as §1

[14] = test system: ryegrass, Italian (Italian ryegrass, Lolium multiflorum); assay: as above; conditions: 1000 g ai/ha, 0 to 100 scale; for Ryegrass, Italian plant response rating: Postemergence, 0 is no effect, 100 is complete control; for Plant response rating, Ryegrass, Italian: Preemergence, 0 no effect, 100 complete control
In short: as §1

[15] = Postemergence, 0 is no effect, 100 is complete control
[16] = Preemergence, 0 no effect, 100 complete control

Compound	Barnyardgrass plant response rating [2, 15]	Plant response rating, Barnyardgrass [2, 16]	Wheat plant response rating [3, 15]	Foxtail, Giant plant response rating [5, 15]	Plant response rating, Foxtail, Giant [5, 16]	Corn plant response rating (corn (Zea mays); [15])	Pigweed plant response rating [7, 15]	Plant response rating, Pigweed [7]	Plant response rating, Sedge, Umbrella [8]	Plant response rating, Barnyardgrass [9]	Plant response rating, Rice (rice (Oryza sativa))	Plant response rating, Ducksalad [10]	Blackgrass plant response rating [11]	Galium plant response rating [12]	Kochia plant response rating (kochia (Kochia scoparia))	Plant response rating, Kochia (kochia (Kochia scoparia))	Ragweed plant response rating [13]	Plant response rating, Ragweed [13]	Ryegrass, Italian plant response rating [14]	Plant response rating, Ryegrass, Italian [14]	also measured
5-hydroxy-4-(5-methoxy-3-benzofuranyl)-2,6-dimethyl-3(2H)-pyridazinone [Compound 5]	40	90	0	80	80	0	10	0	75	0	0	45									Morningglory plant response rating [1, 15]: 70; Plant response rating, Morningglory [1, 16]: 0; Plant response rating, Wheat [3, 16]: 0; Crabgrass, Large plant response rating [4, 15]: 80; Plant response rating, Crabgrass, Large [4, 16]: 90; Plant response rating, Corn (corn (Zea mays); [16]): 0; Plant response rating, Velvetleaf [6]: 0
Cc1nn(C)c(=O)c(-c2c(C)oc3ccc(Cl)cc23)c1O [Compound 6, 4-(5-chloro-2-methyl-3-benzofuranyl)-5-hydroxy-2,6-dimethyl-3 (2H)-pyridazinone]																					pest or weed control at 1000 g/ha ([1]; post-emergence, Postemergence, 0 is no effect, 100 is complete control, read-out: Morningglory plant response rating): 40%; pest or weed control at 1000 g/ha ([1]; pre-emergence, Preemergence, 0 no effect, 100 complete control, read-out: Plant response rating, Morningglory): 10%; pest or weed control at 1000 g/ha ([2]; post-emergence, Postemergence, 0 is no effect, 100 is complete control, read-out: Barnyardgrass plant response rating): 70%; pest or weed control at 1000 g/ha ([2]; pre-emergence, Preemergence, 0 no effect, 100 complete control, read-out: Plant response rating, Barnyardgrass): 100%; plant injury at 1000 g/ha ([3]; post-emergence, Postemergence, 0 is no effect, 100 is complete control, read-out: Wheat plant response rating): 20%; plant injury at 1000 g/ha ([3]; pre-emergence, Preemergence, 0 no effect, 100 complete control, read-out: Plant response rating, Wheat): 0%; pest or weed control at 1000 g/ha ([4]; Digitaria sanguinalis, post-emergence, 240 h, Postemergence, 0 is no effect, 100 is complete control, read-out: Crabgrass, Large plant response rating): 50%; pest or weed control at 1000 g/ha ([5]; post-emergence, Postemergence, 0 is no effect, 100 is complete control, read-out: Foxtail, Giant plant response rating): 70%; pest or weed control at 1000 g/ha ([5]; pre-emergence, Preemergence, 0 no effect, 100 complete control, read-out: Plant response rating, Foxtail, Giant): 50%; plant injury at 1000 g/ha (corn (Zea mays); Zea mays, post-emergence, 240 h, Postemergence, 0 is no effect, 100 is complete control, read-out: Corn plant response rating): 0%; Corn plant response rating (crop injury, 0 = no effect, 100 = complete kill) at 1000 g/ha (corn (Zea mays); Zea mays, pre-emergence, 240 h, Preemergence, 0 no effect, 100 complete control): 30%; pest or weed control at 1000 g/ha ([6]; Abutilon theophrasti, pre-emergence, 240 h, read-out: Plant response rating, Velvetleaf): 20%; pest or weed control at 1000 g/ha ([7]; Amaranthus retroflexus, post-emergence, 240 h, Postemergence, 0 is no effect, 100 is complete control, read-out: Pigweed plant response rating): 50%
C#CCOc1c(C)nn(C)c(=O)c1-c1cccc2ccccc12 [Compound 179]	10	0	0	10	30	10	0	80	0	0	0	0	40	90	10	30	40	50	70	30	
Cc1nn(C)c(=O)c(-c2cccc3ccccc23)c1OCC(=O)C1CC1 [Compound 181]	0	0	0	0	0	0	30	30	0	0	0	0	20	80	0	10	30	10	80	60	
